Experimental data taken from US20090137600A1, “Antiplatelet agent and process for producing the same” (priority 2004, published 2009).
“Also recorded” adds a separate entry of the source. Where two headings read alike, the source gives them in different places.

Tests used:
[1] = Crystal stability on storage at 25° C. and 0%, 52% or 93% RH for 3 days; format: physicochemical; parameters: key to Crystal form (change): No: No change; Yes: Some change
Procedure: Compounds (1a), (1b), and (1c) as well as various salts of Compound (1a) produced in the Examples as described above were stored at 25° C. and at a relative humidity of 0%, 52%, or 93% for 3 days to evaluate change in weight and crystal form. Change in crystal form was measured in the case of fumarate at a low humidity, and in the case of Compound (1a) and its citrate at a high humidity. The salts of Compound (1a) were produced according to the method of Example 3.

[2] = tested on: human platelet rich plasma (PRP), aggregation induced by collagen; experiment: Suppression of collagen-induced platelet aggregation in human PRP; format: cell-based
Procedure: (§1) After removing the PRP in the upper layer, the lower layer was further centrifuged at 1600 g for 10 minutes to separate the platelet poor plasma (PPP). 1 μL of the solution of Compound (I) or Comparative Examples 1 to 3 was added to 200 μL of PRP, and the mixture was allowed to stand at 37° C. for 2 minutes. Platelet aggregation was then induced by adding 2 μL of collagen to the mixture. Platelet aggregation rate was measured by using PAM-12C (SSR Engineering).

[3] = tested on: platelet aggregation induced by collagen in PRP of guinea pig; experiment: Evaluation of oral absorption: ex vivo collagen-induced platelet aggregation in PRP of orally dosed guinea pig; settings: for ex vivo inhibition of the platelet aggregation by the collagen: general statement, no dose given
COX-2 = target: T1, COX-2 (Homo sapiens, UniProt P35354); experiment: Inhibition of cyclooxygenase-2 (COX inhibitor screening assay kit, PGF2α ELISA); format: biochemical; settings: for IC50 for COX-2 relative to IC50 of platelet aggregation suppression: ratio COX-2 IC50 / platelet aggregation IC50
T1 sequence (P35354 18-604): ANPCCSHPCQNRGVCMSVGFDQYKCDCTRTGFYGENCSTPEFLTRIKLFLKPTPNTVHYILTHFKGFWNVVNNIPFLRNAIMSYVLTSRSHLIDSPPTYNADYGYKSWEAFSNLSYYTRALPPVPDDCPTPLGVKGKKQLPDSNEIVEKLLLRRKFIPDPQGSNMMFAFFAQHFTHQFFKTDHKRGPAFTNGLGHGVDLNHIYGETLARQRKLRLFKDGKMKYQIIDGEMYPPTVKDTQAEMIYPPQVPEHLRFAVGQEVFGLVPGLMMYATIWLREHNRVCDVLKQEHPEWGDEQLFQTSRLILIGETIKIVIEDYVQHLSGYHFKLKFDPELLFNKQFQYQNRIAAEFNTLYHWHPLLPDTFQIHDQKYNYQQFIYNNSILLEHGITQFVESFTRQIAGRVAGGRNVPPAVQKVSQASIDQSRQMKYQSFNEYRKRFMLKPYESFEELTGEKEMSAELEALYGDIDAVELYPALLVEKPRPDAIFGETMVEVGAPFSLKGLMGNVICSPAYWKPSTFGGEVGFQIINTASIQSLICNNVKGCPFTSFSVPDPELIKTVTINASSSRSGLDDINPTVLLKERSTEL
Procedure: (§2) Screening assay kit for COX inhibitor (Cayman Chemical Company, Catalog Nos. 560101 and 560121) were used to measure inhibitory activity of each compound for COX-1 and COX-2.
(§3) Reaction buffer, heme, arachidonic acid, SnCl2, EIA buffer, wash buffer, prostaglandin (PG) screening EIA standard, PG screening acetylcholinesterase (AchE) tracer ([…]), and PG screening EIA antiserum were prepared before the measurement.
(§4) The reaction solution containing various concentration of the compound of the Examples and COX-1 or COX-2 was allowed to stand at 37° C. for 10 minutes. 10 μL of arachidonic acid was added, and the reaction solution was allowed to stand at 37° C. for 2 minutes. After the reaction, 50 μL of 1N hydrochloric acid was added to cease the reaction, and 100 μL of SnCl2 solution was added, and the reaction solution was allowed to stand at room temperature for 5 minutes.
(§5) 50 μL of an antiserum (rabbit anti-PGF2α antibody) was added to each well of a 96 well plate which had been coated with mouse anti-rabbit IgG, and to each well was added 50 μL of a 2000-fold dilution of the PGF2α producing reaction solution, and then, 50 μL of the AchE tracer. The reaction mixture was allowed to stand at room temperature for 18 hours. The wells were washed 5 times with the wash buffer to remove the excessive AchE tracer, and 200 μL of Ellman reagent was added. After allowing to stand in a dark room for 60 minutes, the absorbance was measured at 405 nm.
(§6) Standard curve was depicted by using PG screening EIA standard, and amount of the PGF2α produced was determined from the absorbance.

COX-1 = target: T2, COX-1 (Ovis aries, UniProt P05979); experiment: Inhibition of cyclooxygenase-1 (COX inhibitor screening assay kit, PGF2α ELISA); format: biochemical; settings: for IC50 for COX-1 relative to IC50 of platelet aggregation suppression: ratio COX-1 IC50 / platelet aggregation IC50
T2 sequence (P05979 25-600): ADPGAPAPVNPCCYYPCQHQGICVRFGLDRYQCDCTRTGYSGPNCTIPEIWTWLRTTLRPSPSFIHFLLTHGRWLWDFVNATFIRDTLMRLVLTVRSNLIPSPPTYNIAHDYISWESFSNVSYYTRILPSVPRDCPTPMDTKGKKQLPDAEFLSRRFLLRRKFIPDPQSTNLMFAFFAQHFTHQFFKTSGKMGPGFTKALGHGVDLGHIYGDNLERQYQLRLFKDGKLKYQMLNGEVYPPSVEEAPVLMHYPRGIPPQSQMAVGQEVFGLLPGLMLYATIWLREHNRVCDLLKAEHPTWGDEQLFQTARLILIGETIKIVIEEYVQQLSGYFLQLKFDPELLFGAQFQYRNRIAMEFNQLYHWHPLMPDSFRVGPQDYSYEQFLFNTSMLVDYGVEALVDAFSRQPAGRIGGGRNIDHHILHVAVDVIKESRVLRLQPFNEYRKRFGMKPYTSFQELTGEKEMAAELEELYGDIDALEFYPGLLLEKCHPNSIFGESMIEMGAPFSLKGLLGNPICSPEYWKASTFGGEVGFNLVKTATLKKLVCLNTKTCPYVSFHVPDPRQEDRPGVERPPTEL
Procedure: as §2, §3, §4, §5, §6

[4] = tested on: guinea pig platelet rich plasma (PRP), aggregation induced by collagen; experiment: Suppression of collagen-induced platelet aggregation in guinea pig PRP; format: cell-based; settings: Cavia porcellus
Procedure: as §1

[5] = tested on: platelet aggregation induced by collagen; experiment: Inhibition of platelet aggregation induced by collagen (general statement); format: cell-based; settings: species not given
[6] = Solubility in water, JP1 solution and JP2 solution; format: physicochemical
[7] = Stability under wet heat, dry heat and beam irradiation; format: physicochemical
[8] = Safety (general statement)
thrombogenesis [9] = experiment: Thrombus model induced by iron chloride; format: in vivo
thrombogenesis [10] = experiment: Model of thrombosis induced by high shear stress; format: in vivo

Molecule	Crystal form (change) ([1]; 0% RH)	Weight change (%) ([1]; 0% RH)	Crystal form (change) ([1]; 52% RH)	Weight change (%) ([1]; 52% RH)	Crystal form (change) ([1]; 93% RH)	Weight change (%) ([1]; 93% RH)	ex vivo inhibition of the platelet aggregation by the collagen [3]	IC50 (COX-2)	IC50 for COX-2 relative to IC50 of platelet aggregation suppression (COX-2)	IC50 (COX-1)	IC50 for COX-1 relative to IC50 of platelet aggregation suppression (COX-1)	inhibition of the platelet aggregation induced by collagen [5]	solubility in water, JP1 solution and JP2 solution [6]	also measured
Fumarate	Yes^2)	−5.65%	No	1.60%	No	0.59%								
Citrate	No	0.00%	No	0.00%	Yes	2.45%								
COc1ccc(-n2nc(C(=O)N3CCN(C)CC3)cc2-c2ccccn2)nn1 [Compound (1a), [1-(6-methoxypyridazine-3-yl)-5-(pyridine-2-yl)-1H-pyrazole 3-yl](4-methylpiperazine-1-yl)methanone]	No^1)	−0.41%	No	0.41%	Yes	7.99%	strong ex vivo inhibition	> 50 µM	100 fold	97 µM	100 fold	remarkable inhibition		IC50 [2]: 1.1 to 1.3 µM; oral absorbability [3]: excellent oral absorption; IC50 [4]: 0.13 µM
Maleate	No	0.00%	No	0.40%	No	0.39%								
COc1ccc(-n2nc(C(=O)N3CCN(C)CC3)cc2-c2ccccn2)nn1 [Compound (1c), [1-(6-methoxypyridazine-3-yl)-5-(pyridine-2-yl)-1H-pyrazole-3-yl] (4-methylpiperazine-1-yl)methanone mono-1-tartrate]	No	−0.20%	No	0.00%	No	0.19%						remarkable inhibition	highly soluble	stability under wet heat, dry heat, and beam irradiation [7]: extremely stable
COc1ccc(-n2nc(C(=O)N3CCN(C)CC3)cc2-c2ccccn2)nn1.Cl [Compound (1b), [1-(6-Methoxypyridazine-3-yl)-5-(pyridine-2-yl)-1H-pyrazole-3-yl] (4-methylpiperazine-1-yl)methanone Monohydrochloride]	No	0.20%	No	0.58%	Yes	11.54%	strong ex vivo inhibition	> 100 µM	100 fold	> 100 µM	100 fold	remarkable inhibition	good solubility	IC50 ([2]; Homo sapiens, Platelet): 0.86 µM; platelet aggregation induced by collagen, ex vivo ([3]; guinea pig, 10 mg/kg oral, 1 hour after administration, collagen 0.8 μg to 2.5 μg): remarkably suppressed; oral absorbability ([3]; Monohydrochloride): excellent oral absorption; also recorded: sufficiently absorbed; also recorded: favorable oral absorbability; safety [8]: no safety problems; suppression of thrombogenesis (thrombogenesis [9]): remarkable suppression; inhibition of the thrombogenesis (thrombogenesis [10]): remarkable inhibition
